Results: US11390624B2, “Pyrazolopyridines and triazolopyridines as A2A / A2B inhibitors” (Incyte Corporation, priority 2019, dated 2022)

Tests used:
[1] = target: human adenosine A2B receptor (Homo sapiens (Human), UniProt P29275); assay: Adenosine A2B Receptor Cyclic AMP GS Assay; format: cell-based; conditions: HEK-293 cells, agonist NECA at 12 nM, cAMP accumulation; read-out: A2B—cAMP_EC50
Description: Stably transfected HEK-293 cells expressing the human adenosine A2B receptor (Perkin Elmer) were maintained in MEM culture medium with 10% FBS and 100 μg/mL Geneticin (Life Technologies). 18 to 24 hours prior to assay, geneticin was removed from culture. The cisbio cAMP-GS Dynamic kit utilizing the FRET (Fluorescence Resonance Energy Transfer) technology was used to measure cAMP accumulation in the cells. Compounds of the present disclosure at an appropriate concentration were mixed with 10000 cells/well in white 96 well half area plates (Perkin Elmer) for 30 min at room temperature gently shaking. Agonist, NECA (R&D Technologies) at 12 nM was added to each well for 60 min at room temperature gently shaking. Detection reagents, d2-labeled cAMP (acceptor) and anti-cAMP cryptate (donor) were added to each well for 60 min at RT gently shaking. Plates were read on Pherastar (BMG Labtech), fluorescence ratio 665/620 was calculated and EC50 determination was performed by fitting the curve of percent of control versus the log of the compound concentration using GraphPad Prism.

[2] = target: Adenosine A2A receptor (Tag-lite Adenosine A2A labeled cells) (Homo sapiens (Human), UniProt P29274); assay: A2A Tag-lite HTRF Assay; format: binding; conditions: displacement of Adenosine A2A Receptor Red antagonist fluorescent ligand, 12.5 nM
Chain of Adenosine A2A receptor (Tag-lite Adenosine A2A labeled cells) (P29274 whole entry): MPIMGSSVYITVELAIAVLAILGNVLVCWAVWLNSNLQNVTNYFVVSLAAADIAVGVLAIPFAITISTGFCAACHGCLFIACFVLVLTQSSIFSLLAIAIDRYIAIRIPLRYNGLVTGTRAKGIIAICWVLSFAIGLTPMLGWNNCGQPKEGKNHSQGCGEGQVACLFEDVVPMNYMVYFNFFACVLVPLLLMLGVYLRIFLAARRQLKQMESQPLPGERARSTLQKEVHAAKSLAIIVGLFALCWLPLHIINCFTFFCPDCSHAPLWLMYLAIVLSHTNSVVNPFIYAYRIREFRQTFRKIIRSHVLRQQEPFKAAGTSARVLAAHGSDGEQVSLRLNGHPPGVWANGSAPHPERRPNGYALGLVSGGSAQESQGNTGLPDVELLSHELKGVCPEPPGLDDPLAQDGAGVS
Source text: The final concentration of DMSO was 1%.

Chain of human adenosine A2B receptor (P29275 whole entry): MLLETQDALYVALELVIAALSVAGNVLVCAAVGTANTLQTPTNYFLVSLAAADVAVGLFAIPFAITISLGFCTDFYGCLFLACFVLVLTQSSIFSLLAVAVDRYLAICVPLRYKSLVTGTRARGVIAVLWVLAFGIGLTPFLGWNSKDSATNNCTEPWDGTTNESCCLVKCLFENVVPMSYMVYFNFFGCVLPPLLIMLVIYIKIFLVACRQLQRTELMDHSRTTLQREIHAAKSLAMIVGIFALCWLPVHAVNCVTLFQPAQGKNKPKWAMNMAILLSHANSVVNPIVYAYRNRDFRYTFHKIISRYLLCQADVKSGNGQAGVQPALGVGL

## Cc1ncoc1-c1c(-c2cccc(C#N)c2)nc(N)c2nn(Cc3ccccn3)cc12 [Example 12, 3-(7-amino-4-(4-methyloxazol-5-yl)-2-(pyridin-2-ylmethyl)-2H-pyrazolo[3,4-c]pyridin-5-yl)benzonitrile]
[1]
  EC50: 0.01 to 0.1 µM
[2]
  Ki: ≤ 0.01 µM

## Cc1ncoc1-c1c(-c2cccc(C#N)c2)nc(N)c2nn(Cc3ccn(C)n3)nc12 [Example 45, 3-(4-amino-2-((1-methyl-1H-pyrazol-3-yl)methyl)-7-(4-methyloxazol-5-yl)-2H-[1,2,3]triazolo[4,5-c]pyridin-6-yl)benzonitrile]
[1]
  EC50: ≤ 0.01 µM
[2]
  Ki: ≤ 0.01 µM

## N#Cc1cccc(-c2nc(N)c3cn(Cc4ccccn4)nc3c2-c2ccncn2)c1 [Example 1, 3-(4-amino-2-(pyridin-2-ylmethyl)-7-(pyrimidin-4-yl)-2H-pyrazolo[4,3-c]pyridin-6-yl)benzonitrile]
[1]
  EC50: 0.01 to 0.1 µM
[2]
  Ki: ≤ 0.01 µM

## CC(C)n1nccc1-c1c(-c2cccc(C#N)c2)nc(N)c2nn(Cc3ncccc3F)nc12 [Example 34, 3-(4-amino-2-((3-fluoropyridin-2-yl)methyl)-7-(1-isopropyl-1H-pyrazol-5-yl)-2H-[1,2,3]triazolo[4,5-c]pyridin-6-yl)benzonitrile]
[1]
  EC50: ≤ 0.01 µM
[2]
  Ki: ≤ 0.01 µM

## Cc1ncoc1-c1c(-c2cccc(C#N)c2)nc(N)c2nn(Cc3ncccc3F)nc12 [Example 36, 3-(4-amino-2-((3-fluoropyridin-2-yl)methyl)-7-(4-methyloxazol-5-yl)-2H-[1,2,3]triazolo[4,5-c]pyridin-6-yl)benzonitrile]
[1]
  EC50: ≤ 0.01 µM
[2]
  Ki: ≤ 0.01 µM

## Cc1ncoc1-c1c(-c2cccc(C#N)c2F)nc(N)c2nn(CCc3ccccn3)nc12 [Example 49, 3-(4-amino-7-(4-methyloxazol-5-yl)-2-(2-(pyridin-2-yl)ethyl)-2H-[1,2,3]triazolo[4,5-c]pyridin-6-yl)-2-fluorobenzonitrile]
[1]
  EC50: 0.01 to 0.1 µM
[2]
  Ki: ≤ 0.01 µM

## Cn1ccc(Cn2cc3c(N)nc(-c4cccc(C#N)c4)c(-c4ccncn4)c3n2)n1 [Example 4, 3-(4-amino-2-((1-methyl-1H-pyrazol-3-yl)methyl)-7-(pyrimidin-4-yl)-2H-pyrazolo[4,3-c]pyridin-6-yl)benzonitrile]
[1]
  EC50: 0.01 to 0.1 µM
[2]
  Ki: ≤ 0.01 µM

## N#Cc1cccc(-c2nc(N)c3nn(Cc4ccccn4)nc3c2-c2ccc3nccnc3c2)c1 [Example 23, 3-(4-amino-2-(pyridin-2-ylmethyl)-7-(quinoxalin-6-yl)-2H-[1,2,3]triazolo[4,5-c]pyridin-6-yl)benzonitrile]
[1]
  EC50: 0.1 to 1 µM
[2]
  Ki: ≤ 0.01 µM

## N#Cc1cccc(-c2nc(N)c3nn(Cc4ccccn4)nc3c2-c2ccc3ncccc3c2)c1 [Example 22, 3-(4-amino-2-(pyridin-2-ylmethyl)-7-(quinolin-6-yl)-2H-[1,2,3]triazolo[4,5-c]pyridin-6-yl)benzonitrile]
[1]
  EC50: ≤ 0.01 µM
[2]
  Ki: ≤ 0.01 µM

## Cc1cccc(Cn2nc3c(N)nc(-c4cccc(C#N)c4)c(-c4ccc(=O)n(C)c4)c3n2)n1 [Example 27, 3-(4-amino-7-(1-methyl-6-oxo-1,6-dihydropyridin-3-yl)-2-((6-methylpyridin-2-yl)methyl)-2H-[1,2,3]triazolo[4,5-c]pyridin-6-yl)benzonitrile]
[1]
  EC50: 0.01 to 0.1 µM
[2]
  Ki: ≤ 0.01 µM

## CCn1nccc1-c1c(-c2cccc(C#N)c2)nc(N)c2nn(Cc3cccc(C)n3)cc12 [Example 11, 3-(7-amino-4-(1-ethyl-1H-pyrazol-5-yl)-2-((6-methylpyridin-2-yl)methyl)-2H-pyrazolo[3,4-c]pyridin-5-yl)benzonitrile]
[1]
  EC50: 0.01 to 0.1 µM
[2]
  Ki: ≤ 0.01 µM

## N#Cc1cccc(-c2nc(N)c3cn(Cc4ccccn4)nc3c2-c2ccncc2)c1 [Example 6, 3-(4-amino-2-(pyridin-2-ylmethyl)-7-(pyridin-4-yl)-2H-pyrazolo[4,3-c]pyridin-6-yl)benzonitrile]
[1]
  EC50: ≤ 0.01 µM
[2]
  Ki: ≤ 0.01 µM

## N#Cc1cccc(-c2nc(N)c3cn(Cc4ccccc4F)nc3c2-c2ccncn2)c1 [Example 7, 3-(4-amino-2-(2-fluorobenzyl)-7-(pyrimidin-4-yl)-2H-pyrazolo[4,3-c]pyridin-6-yl)benzonitrile]
[1]
  EC50: ≤ 0.01 µM
[2]
  Ki: ≤ 0.01 µM

## Cn1nccc1-c1c(-c2cccc(C#N)c2)nc(N)c2nn(Cc3ncccc3F)nc12 [Example 35, 3-(4-amino-2-((3-fluoropyridin-2-yl)methyl)-7-(1-methyl-1H-pyrazol-5-yl)-2H-[1,2,3]triazolo[4,5-c]pyridin-6-yl)benzonitrile]
[1]
  EC50: ≤ 0.01 µM
[2]
  Ki: ≤ 0.01 µM

## Cc1nc(CO)c(-c2c(-c3cccc(C#N)c3)nc(N)c3nn(Cc4ccccn4)nc23)o1 [Example 20, 3-(4-amino-7-(4-(hydroxymethyl)-2-methyloxazol-5-yl)-2-(pyridin-2-ylmethyl)-2H-[1,2,3]triazolo[4,5-c]pyridin-6-yl)benzonitrile]
[1]
  EC50: ≤ 0.01 µM
[2]
  Ki: ≤ 0.01 µM

## Cc1cccc(Cn2nc3c(N)nc(-c4cccc(C#N)c4)c(-c4ccncn4)c3n2)n1 [Example 24, 3-(4-amino-2-((6-methylpyridin-2-yl)methyl)-7-(pyrimidin-4-yl)-2H-[1,2,3]triazolo[4,5-c]pyridin-6-yl)benzonitrile]
[1]
  EC50: ≤ 0.01 µM
[2]
  Ki: ≤ 0.01 µM

## N#Cc1cccc(-c2nc(N)c3cn(Cc4ncccc4F)nc3c2-c2ccncn2)c1 [Example 3, 3-(4-amino-2-((3-fluoropyridin-2-yl)methyl)-7-(pyrimidin-4-yl)-2H-pyrazolo[4,3-c]pyridin-6-yl)benzonitrile]
[1]
  EC50: 0.01 to 0.1 µM
[2]
  Ki: ≤ 0.01 µM

## Cc1cccc(Cn2nc3c(N)nc(-c4cccc(C#N)c4)c(-c4ocnc4C)c3n2)n1 [Example 29, 3-(4-amino-7-(4-methyloxazol-5-yl)-2-((6-methylpyridin-2-yl)methyl)-2H-[1,2,3]triazolo[4,5-c]pyridin-6-yl)benzonitrile]
[1]
  EC50: ≤ 0.01 µM
[2]
  Ki: ≤ 0.01 µM

## Cc1cccc(Cn2nc3c(N)nc(-c4cccc(C#N)c4)c(-c4ccncc4C)c3n2)n1 [Example 26, 3-(4-amino-2-((6-methylpyridin-2-yl)methyl)-7-(3-methylpyridin-4-yl)-2H-[1,2,3]triazolo[4,5-c]pyridin-6-yl)benzonitrile]
[1]
  EC50: ≤ 0.01 µM
[2]
  Ki: ≤ 0.01 µM

## Cc1cccc(Cn2cc3c(-c4ccncn4)c(-c4cccc(C#N)c4)nc(N)c3n2)n1 [Example 10, 3-(7-amino-2-((6-methylpyridin-2-yl)methyl)-4-(pyrimidin-4-yl)-2H-pyrazolo[3,4-c]pyridin-5-yl)benzonitrile]
[1]
  EC50: ≤ 0.01 µM
[2]
  Ki: ≤ 0.01 µM

## CCn1nccc1-c1c(-c2cccc(C#N)c2)nc(N)c2nn(Cc3ncccc3F)nc12 [Example 33, 3-(4-amino-7-(1-ethyl-1H-pyrazol-5-yl)-2-((3-fluoropyridin-2-yl)methyl)-2H-[1,2,3]triazolo[4,5-c]pyridin-6-yl)benzonitrile]
[1]
  EC50: ≤ 0.01 µM
[2]
  Ki: ≤ 0.01 µM

## N#Cc1cccc(-c2nc(N)c3nn(Cc4ncccc4F)nc3c2-c2ccncc2)c1 [Example 31, 3-(4-amino-2-((3-fluoropyridin-2-yl)methyl)-7-(pyridin-4-yl)-2H-[1,2,3]triazolo[4,5-c]pyridin-6-yl)benzonitrile]
[1]
  EC50: ≤ 0.01 µM
[2]
  Ki: ≤ 0.01 µM

## Cc1cccc(Cn2cc3c(-c4ocnc4C)c(-c4cccc(C#N)c4)nc(N)c3n2)n1 [Example 13]
[1]
  EC50: 0.01 to 0.1 µM
[2]
  Ki: ≤ 0.01 µM
